Patent publication US20190015312A1, “COSMETIC FORMULATIONS” (KIMBERLY-CLARK WORLDWIDE, INC., priority 2015, published 2019)

The substances below were run on volunteer human subjects (assay: Human clinical anti-perspirant study, gravimetric perspiration on lower back). Settings: Table D study; Acetyl Hexapeptide-30 and Pentapeptide-18 tested in combination.
Format: in vivo
Protocol: The effectiveness of the peptide material at addressing perspiration was evaluated in a human clinical study. The screening of various potential sweat-reducing materials was determined using at least 20 volunteer human subjects. Twenty-four subjects were planned for enrollment into the study to ensure that 20 subjects completed testing. Baseline screening was performed on up to 40 subjects to ensure a sufficient number of subjects were enrolled in the treatment application phase who met minimum sweat production criteria of 50 mg over a 20-minute collection period. As shown in Table C and Table D, each subject had seven test materials randomly applied to the lower back in 2 inch by 2 inch treatment application areas and one site was left untreated on each subject as a control. The study subjects participated in a 4-day test period consisting of four, supervised treatment applications, spaced 24-hours apart, and one post treatment application sweat collection period 1-hour post-product application on Day 4. The study staff visually assessed the application sites, and applied each of the test materials to the backs of the subjects. […] Subjects were instructed to not leave the room during the approximately 60-minute test period. • Absorbent gauze sponges, 2 inch by 2 inch (two 4-ply sponges, Avant Gauze® Sponges), were applied to the eight sites on the lower back of the subjects. Sponges were occluded on the site using 3MTM BlendermTM Medical Tape, and affixed to the site using Scanpor® Paper Tape. • The sponges remained in place for a 20-minute acclimation period. […] Subjects were not allowed to consume water during this 20-minute period. • Following the 20-minute period, the sponges with the 3MTM BlendermTM Medical Tape were removed and sealed in a bag or container for weighing within 1-hour of removal. • After exiting the temperature-controlled room, the subjects again sat in normal ambient indoor temperature for at least 20-minutes, and trained technicians determined the body temperature, pulse, and blood pressure of each subject. […]

Substance	Activity of the peptide in the presence of a salt based cosmetic astringent, in words
Acetyl Hexapeptide-30	high activity
Acetyl Dipeptide-1 Cetyl Ester	high activity
Pentapeptide-18	high activity
